Results from US20160251625A1, “METHOD FOR SCALABLE SKELETAL MUSCLE LINEAGE SPECIFICATION AND CULTIVATION” (THE CURATORS OF THE UNIVERSITY OF MISSOURI, priority 2013, published 2016).

How the values were obtained:
O2KM cell line = assay: 5AC effects on MYF5 expression and terminal differentiation of O2KM; format: cell-based, porcine
Procedure: Therefore, a epigenetic modulator was used to enhance the expression of myogenic genes in cells otherwise non-permissive to myogenesis and enhance terminal differentiation of lineage committed myoctes to mature myofibers. […] This distinction may explained by the enhanced expression of the myogenic transcription factor MYF5 observed only in the 5AC-exposed O2KM prior to and following 48 hours of DOX withdrawal
(§1) 5AC exposure prior to, during, and following E2-mediated induction of ‘MyoDER’ was introduced to enable terminal-differentiation of O2KM from myocytes into refractive, filamentous myotubes. The murine C2C12 cell line was used as positive control to screen for optimal conditions for terminal differentiation by O2KM. […] 5AC, a small-molecule epigenetic modulator, was determined previously to enable skeletal muscle transcription in cell lines non-permissive to myogenesis. Moreover, 5AC exposure was further determined to enhance terminal differentiation by the C2C12 cell line.
N-2 and B-27 supplements were used exclusively as serum replacements. Cultures were differentiated for up to 6d following under 20% O2 following induction regimens (FIG. 20A). […] Contractile potential of terminally differentiating skeletal muscle myotubes was validated by (1) structural development of well-organized sarcomeres, as shown in FIG. 20G; (2) asynchronous spontaneous contraction, as shown in FIG. 21A; (3) contractile stimulation and synchronization by field stimulation, as shown in FIG. 21B; (4) caffeine-stimulated contraction, as shown in FIG. 21C; and (5) acetylcholine-stimulated contraction, as shown in FIG. 21D.
piPSC modification with an integrated MyoDER expression cassette. […] Arrows and boxes indicate promoter and gene sequences, respectively. […] MyoDER was detected with an antibody raised against a MyoD peptide. […] Endogenous MYOD1 (˜45 kD, expected) was not detected. […] Double Arrow: Partially resolved MYOG isoforms. FIGS. 19A and 19B. Determinants of MYF5 activation: Western blot analyses. […] In the absence of CHIR99021, the 17 kD cleaved caspase isoform was not observed in the KOSR supplemented differentiation milieu, as in contrast to observations in the N-2 and B-27 supplemented differentiation milieu (FIG. 17A, FIG. 19A). […] MYODER-modified piPSC were cultured 3 days in self-renewal or expansion milieu. […] TUBA is detected as an internal protein loading control.

undifferentiated O2KM = assay: 5AC tolerance of undifferentiated O2KM; format: cell-based, porcine
Procedure: as §1

murine C2C12 myoblast = assay: terminal differentiation of C2C12 myoblasts, scored by size and extent of myotube formation; format: cell-based; conditions: low-mitogen differentiation cultures (2% horse serum/DMEM)
O2K cell line [1] = assay: cell death / survival of differentiating O2K (phase contrast, cell adhesion, CPP32 cleavage, Annexin V); format: cell-based, porcine; conditions: SRM basal medium without hLIF, DOX, PD032591 and PD173074
From the text: (§2) 1. As CHIR99021 repressed cell death, supported differentiation toward paraxial mesoderm by the differentiating O2K cell line and enhanced terminal differentiation by the C2C12 cell line, precedent was established to retain the compound in all culture stages.
TUBA is detected an internal protein loading control.

CTNNB1 = assay: Western blot of CTNNB1 level and phosphorylation in differentiating O2K; format: cell-based, porcine; conditions: primordial differentiation
From the text: TUBA detected as an internal protein loading control. […] TUBA detection is shown as an internal protein loading control.

O2K cell line [2] = assay: differentiation marker Western blot (PAX3, POU5F1, KLF4) in O2K; format: cell-based, porcine; conditions: differentiating O2K, CHIR99021 supplemented basal medium
From the text: as §2
TUBA detected as an internal protein loading control. FIG. 13A indicates ratios of p-CTNNB1/CTNNB1 bands. FIG. 13B indicates ratios of CTNNB1/TUBA bands. […] TUBA detection is shown as an internal protein loading control.

piPSC-derived myotubes = assay: calcium transient activity (Fluo-4 AM) in piPSC-derived myotubes; format: cell-based, porcine; conditions: d6 myotubes, 10 mM, field of view
From the text: To quantify contraction cycles, myotube cultures were stained with Fluo-4 AM calcium dye, washed, and image sequences were captured by confocal microscopy. Dynamic signaling events of an entire field of view (FOV) or single cells were traced and plotted over the imaging course. [s]=seconds.

Nc1ncn([C@@H]2O[C@H](CO)[C@@H](O)[C@H]2O)c(=O)n1 [5AC, 5-Aza-Cytidine]
MYF5 expression after expansion culture (O2KM cell line; MyoDER-modified piPSC, 3 days, in the presence of DOX and CHIR99021): supported detectable MYF5 expression levels
MYF5 expression (O2KM cell line; O2KM derived myocytes cultured in the presence of 5AC): MYF5 expression was enhanced
myotube morphology in terminal differentiation (O2KM cell line; O2KM exposed to 5AC during expansion and induction regimens): formed refractive, anisotropic myotubes
activation of endogenous MYF5 expression, dependence on CHIR99021 (O2KM cell line; unmodified piPSC, 2d differentiation milieu with KOSR, no 3i, DOX, hLIF, E2): dependent upon simultaneous CHIR99021 exposure
highest dose tolerated (undifferentiated O2KM): 250 nM

Cc1c[nH]c(-c2cnc(NCCNc3ccc(C#N)cn3)nc2-c2ccc(Cl)cc2Cl)n1 [CHIR99021]
terminal differentiation of C2C12 into skeletal myotubes (murine C2C12 myoblast): enhanced terminal differentiation into skeletal myotubes
cell survival during differentiation (O2K cell line [1]): supported both cell survival during differentiation
CTNNB1 stabilization and phosphorylation status (CTNNB1): stabilizes and modulates the phosphorylation status of the GSK3β substrate, CTNNB1
paraxial mesoderm lineage specification (PAX3 expression, loss of POU5F1 and KLF4) (O2K cell line [2]): supported pre-myogenic paraxial mesoderm lineage specification of differentiating O2K

Cn1c(=O)c2c(ncn2C)n(C)c1=O [caffeine]
calcium transient activation (piPSC-derived myotubes): calcium transient activation
